Values quoted from earlier work, collected in article PMC12308805, “Ultrahigh-Throughput Virtual Screening Strategies against PPI Targets: A Case Study of STAT Inhibitors” (Journal of Chemical Information and Modeling, 2025).

test system: STAT3; details: sheet 6QHD_actives_decoys; retrospective screening set for STAT3 SH2 domain (PDB 6QHD); […]; ref DUD-E; cited from earlier work

SMILES | Type
C=C1[C@@H](O)[C@@H]2O[C@]3(CC[C@@H]2O[C@@H]1[C@@H](O)C[C@H](C)[C@H]1O[C@@]2(CCCCO2)CC[C@H]1C)CC[C@H](/C=C/[C@@H](C)[C@H]1CC(C)=C[C@@]2(O[C@@H](C[C@@](C)(O)C(=O)O)CC[C@H]2O)O1)O3 [Decoy484] | Inactive (Decoy)
Cc1cc(NS(=O)(=O)c2ccc(NC(=S)NC(=O)COc3ccc([N+](=O)[O-])cc3)cc2)no1 [Decoy494] | Inactive (Decoy)
CC[C@H](C)N1C(=O)NC(=O)/C(=C/Nc2ccc3c(c2)C[C@]2(C(=O)NC(=O)N=C2O)[C@H]2CN(C)CCN32)C1=O [Decoy502] | Inactive (Decoy)
Nc1n(-c2ccccc2)c(=O)c(C(c2ccc([N+](=O)[O-])cc2)c2c([O-])[n+](-c3ccccc3)c(N)n(-c3ccccc3)c2=O)c([O-])[n+]1-c1ccccc1 [Decoy514] | Inactive (Decoy)
COc1ccccc1/C=C/C(=O)NC(=S)Nc1ccc(S(=O)(=O)Nc2cc(C)on2)cc1 [Decoy519] | Inactive (Decoy)
Cc1ccnc(NS(=O)(=O)c2ccc(NC(=O)c3cc([N+](=O)[O-])c(Cl)c([N+](=O)[O-])c3)cc2)n1 [Decoy530] | Inactive (Decoy)
CCOc1ccc(NS(=O)(=O)c2ccc3c(c2)CC(=O)N3)cc1S(=O)(=O)N1CCCC1 [Decoy537] | Inactive (Decoy)

same assay, conditions: sheet 6QHD_actives_decoys; retrospective screening set for STAT3 SH2 domain (PDB 6QHD); decoys generated with DUD-E and presumed inactive, not tested; ref DUD-E; cited from earlier work

SMILES | Type
Cc1cc(NS(=O)(=O)c2ccc(N/N=C(/C#N)C(=O)Nc3ccc(S(N)(=O)=O)cc3)cc2)no1 [Decoy483] | Inactive (Decoy)
COc1cc(NS(=O)(=O)c2ccc(NC(=O)c3cccc(COc4cccc(Cl)c4)c3)cc2)nc(OC)n1 [Decoy485] | Inactive (Decoy)
O=C(Nc1ccc2c(O)c(/N=N/c3ccccc3)c(S(=O)(=O)O)cc2c1)Nc1ccc2c(O)c(/N=N/c3ccccc3)c(S(=O)(=O)O)cc2c1 [Decoy486] | Inactive (Decoy)
O=C(CSc1n[nH]c(N/N=C/c2ccc(OCc3ccc(F)cc3)o2)n1)Nc1nccs1 [Decoy487] | Inactive (Decoy)
COCCOc1ccc(C(F)(F)F)cc1NC(=O)CSc1nnc(-c2ccc(OC)cc2)o1 [Decoy488] | Inactive (Decoy)
CCOC(=O)c1ccc(NC(=O)COc2cc(Br)c([C@H]3NC(=S)N=C(C)/C3=C(/O)OC)cc2OC)cc1 [Decoy489] | Inactive (Decoy)
NS(=O)(=O)c1ccc(CCNC(=O)CCCCCn2c(=S)[nH]c3ccc(N4CCOCC4)cc3c2=O)cc1 [Decoy490] | Inactive (Decoy)
C=C(CCO)C(=O)OC[C@@H]1OC[C@H](OC(=O)C(=C)CCO[C@@H]2O[C@H](COC(=O)C(=C)CCO)[C@@H](O)[C@H](O)[C@H]2O)[C@@H](O)[C@H]1O [Decoy491] | Inactive (Decoy)
C=C(CCO)C(=O)OC[C@H]1OC[C@@H](OC(=O)C(=C)CCO[C@@H]2O[C@H](COC(=O)C(=C)CCO)[C@@H](O)[C@H](O)[C@H]2O)[C@@H](O)[C@H]1O [Decoy492] | Inactive (Decoy)
C=C(CCO)C(=O)OC[C@H]1OC[C@H](OC(=O)C(=C)CCO[C@@H]2O[C@H](COC(=O)C(=C)CCO)[C@@H](O)[C@H](O)[C@H]2O)[C@@H](O)[C@H]1O [Decoy493] | Inactive (Decoy)
CCN(CC)C1=NC(=O)[C@@H](CC(=O)Nc2cccc(C(=O)OCC(=O)c3ccc(C)cc3)c2)S1 [Decoy495] | Inactive (Decoy)
COC(=O)c1ccc2c(=O)n(CCc3ccc(S(N)(=O)=O)cc3)c(SCC(=O)Nc3ccc(C)cc3)nc2c1 [Decoy496] | Inactive (Decoy)
COC(=O)[C@@H]1O[C@H](OC/C(=N/NC(N)=O)[C@H]2CC[C@@H]3[C@@H]4CC[C@@H]5C[C@H](OC(C)=O)CC[C@@]5(C)[C@H]4C(=O)C[C@@]23C)[C@@H](OC(C)=O)[C@H](OC(C)=O)[C@H]1OC(C)=O [Decoy497] | Inactive (Decoy)
COC(=O)[C@@H]1O[C@H](OC/C(=N/NC(N)=O)[C@H]2CC[C@@H]3[C@@H]4CC[C@@H]5C[C@H](OC(C)=O)CC[C@@]5(C)[C@H]4[C@H](O)C[C@@]23C)[C@@H](OC(C)=O)[C@H](OC(C)=O)[C@H]1OC(C)=O [Decoy498] | Inactive (Decoy)
CCOC(=O)c1cc(C(=O)OCC)c(=O)[nH]c1NN=C1CCN(c2ncc(C(F)(F)F)cc2Cl)CC1 [Decoy499] | Inactive (Decoy)
COc1cc(NC(=O)CSc2n[nH]c(N/N=C/c3cc([N+](=O)[O-])ccc3O)n2)ccc1Cl [Decoy500] | Inactive (Decoy)
Nc1ccc2cc(S(=O)(=O)O)cc(O)c2c1/N=N/c1ccccc1S(=O)(=O)NCC1CCCCC1 [Decoy501] | Inactive (Decoy)
O=C(O)CN(CC(=O)O)[C@H](CCCCNC(=S)Nc1ccc(-c2c3ccc(=O)cc-3oc3cc(O)ccc23)c(C(=O)O)c1)C(=O)O [Decoy503] | Inactive (Decoy)
CCN(CC)c1ccc(C(=O)OCC(=O)Nc2cccc(S(=O)(=O)/N=C3\CCCCCN3)c2)cc1 [Decoy504] | Inactive (Decoy)
NCCCCCCNc1ncnc2c1ncn2[C@@H]1O[C@H](COP(=O)(O)O)[C@@H](OP(=O)(O)O)[C@H]1O [Decoy505] | Inactive (Decoy)
C=C(CO[C@@H]1[C@H](O)[C@H](CO)O[C@@H](OCC#Cc2ccc(O)c(C(=O)OC)c2)[C@H]1NC(C)=O)C(=O)OCC [Decoy506] | Inactive (Decoy)
C=C(CO[C@H]1[C@H](O)[C@H](CO)O[C@@H](OCC#Cc2ccc(O)c(C(=O)OC)c2)[C@H]1NC(C)=O)C(=O)OCC [Decoy507] | Inactive (Decoy)
C=CCn1c(CNc2ccc(C)cc2)nnc1SCCC(=O)Nc1sc(C(=O)OCC)c(C)c1C#N [Decoy508] | Inactive (Decoy)
CCOc1ccc(-c2n[nH]c3c2[C@H](c2cc(OC)c(OC(C)=O)c(OC)c2)C(C#N)=C(N)O3)cc1 [Decoy509] | Inactive (Decoy)

SMILES | Type
COc1cc(/C=N/NC(=O)CC(=O)N/N=C/c2cc(Br)c(O)c(OC)c2)cc(Br)c1O [Decoy510] | Inactive (Decoy)
O=c1ccn([C@@H]2O[C@@H](CO[P@@](=O)(O)O[P@@](=O)(O)OP(=O)(O)O)[C@@H](O)[C@@H]2O)c(=O)[nH]1 [Decoy511] | Inactive (Decoy)
COc1cc(NC(=O)c2cnn3c2N[C@H](c2cc(OC)c(OC)c(OC)c2)C[C@@H]3C(F)(F)F)cc([N+](=O)[O-])c1 [Decoy512] | Inactive (Decoy)
CCOC(=O)CNC(=O)[C@H](c1ccc(O)cc1)N(C(=O)c1snc(C(N)=O)c1N)c1ccccc1CC [Decoy513] | Inactive (Decoy)
O=C(O)CN(CC(=O)O)[C@@H](CCCCNC(=S)Nc1ccc(-c2c3ccc(=O)cc-3oc3cc(O)ccc23)c(C(=O)O)c1)C(=O)O [Decoy515] | Inactive (Decoy)
Cn1c(CNc2ccc(C(=N)N)cc2)nc2cc(C(=O)N(CCC(=O)O[C@@H]3O[C@H](C(=O)O)[C@@H](O)[C@H](O)[C@H]3O)c3ccccn3)ccc21 [Decoy516] | Inactive (Decoy)
CCOC(=O)c1sc(N/N=C(\C(=O)Nc2cccc(OC)c2)C(=O)c2ccc([N+](=O)[O-])cc2)c(C(=O)OCC)c1C [Decoy517] | Inactive (Decoy)
CCNS(=O)(=O)c1ccc(C)c(C(=O)OCC(=O)NNC(=O)c2ccccc2Cl)c1 [Decoy518] | Inactive (Decoy)
CCOc1ccc(-n2c(CNC(=O)c3ccc(S(=O)(=O)N(C)C)cc3)nnc2SCC(=O)Nc2cccc(C)c2)cc1 [Decoy520] | Inactive (Decoy)
CCCc1nc(C(C)(C)O[C@@H]2O[C@H](C(=O)O)[C@@H](O)[C@H](O)[C@H]2O)c(C(=O)O)n1Cc1ccc(-c2ccccc2-c2nnn[nH]2)cc1 [Decoy521] | Inactive (Decoy)
CCOC(=O)Cc1csc(NC(=O)CSc2nnc(Cc3csc(N)n3)n2C)n1 [Decoy522] | Inactive (Decoy)
Cc1nnc(SCC2=C(C(=O)NCC(C)C)N3C(=O)[C@H](NC(=O)c4nn(C)c(C)c4Br)[C@H]3SC2)s1 [Decoy523] | Inactive (Decoy)
C[C@@]12CCC[C@@](C)(C(=O)O[C@@H]3O[C@@H](CO)[C@@H](O)[C@@H](O)[C@H]3O)[C@H]1CC[C@]13C[C@H](CC[C@H]12)[C@@](CO)(O[C@@H]1O[C@@H](CO)[C@@H](O)[C@@H](O)[C@H]1O)C3 [Decoy524] | Inactive (Decoy)
C[C@@H](OC(=O)CCC(=O)Nc1ccc(C(=O)OCC(=O)c2cccc([N+](=O)[O-])c2)cc1)C(=O)c1cccc(Cl)c1 [Decoy525] | Inactive (Decoy)
O=C(NCCCN1CCN(CCCNC(=O)c2cc3ccccc3oc2=O)CC1)c1cc2ccccc2oc1=O [Decoy526] | Inactive (Decoy)
COc1ccc([C@H]2Oc3c(OC)cc(CCCO)cc3[C@@H]2CO)cc1O[C@@H]1O[C@@H](CO)[C@@H](O)[C@@H](O)[C@@H]1O [Decoy527] | Inactive (Decoy)
COc1ccc(OC)c(-n2c(CNC(=O)c3ccc(S(=O)(=O)N(C)C)cc3)nnc2SCC(=O)Nc2ccc(F)cc2)c1 [Decoy528] | Inactive (Decoy)
COC(=O)CNC(=O)c1ccc(NC(=O)c2nc(NCc3ccco3)ncc2Cl)cc1 [Decoy529] | Inactive (Decoy)
COc1ccc(C(=O)NCCc2nnc3ccc(SCC(=O)Nc4ccc(OC(F)(F)F)cc4)nn23)cc1 [Decoy531] | Inactive (Decoy)
C[C@H](CCC(=O)NCC(=O)NCCS(=O)(=O)O)[C@H]1CC[C@H]2[C@@H]3[C@H](O)C[C@@H]4C[C@H](O)CC[C@]4(C)[C@H]3C[C@H](O)[C@]12C [Decoy532] | Inactive (Decoy)
CCOC(=O)c1c(NC(=O)[C@@H](C)Sc2nnc(CNC(=O)c3cc(OC)cc(OC)c3)n2C)sc2c1CCC2 [Decoy533] | Inactive (Decoy)
CCOc1ccc(S(=O)(=O)NC[C@@H](c2cccnc2)S(=O)(=O)c2ccc(OCC)cc2)cc1 [Decoy534] | Inactive (Decoy)
CC1(C)CC[C@]2(C(=O)O[C@@H]3O[C@H](CO)[C@@H](O)[C@H](O)[C@H]3O)[C@H](O)C[C@]3(C)C(=CC[C@@H]4[C@@]5(C)CC[C@H](O[C@@H]6OC[C@H](O)[C@H](O)[C@H]6O)[C@@](C)(CO)[C@@H]5CC[C@]43C)[C@@H]2C1 [Decoy535] | Inactive (Decoy)
CC(C)(C)OC(=O)N[C@H](CSSC[C@@H](NC(=O)OC(C)(C)C)C(=O)OC[C@H]1O[C@H](O)[C@@H](O)[C@@H](O)[C@H]1O)C(=O)OC[C@H]1O[C@H](O)[C@@H](O)[C@@H](O)[C@H]1O [Decoy536] | Inactive (Decoy)
